# Assay results as given in patent US20250041380A1, “R[…] FOR SARS-COV2 DISEASE” (priority 2021, published 2025).
# Where two headings read alike, the source gives them in different places.
# Legend:
# [1] = tested on: Bladder cells (T24); test: tissue or blood; assay type: cell-based; conditions: Spike S1 Protein (5 μg/ml)
# [2] = tested on: liver cells (HepG2); test: cells; assay type: cell-based; conditions: Spike S1 Protein (20 μg/ml)
# [3] = tested on: Bone cells (MG-63); test: cells; assay type: cell-based; conditions: Spike S1 Protein (10 μg/ml); for inhibition at 0.1 µM / inhibition at 1 µM / inhibition at 10 µM / inhibition at 20 µM: Homo sapiens, MG-63
# [4] = tested on: Lung (A549) cells; test: in vitro; assay type: cell-based, Human; conditions: 48 h
# Protocol: (§1) A549 cells were plated in DMEM+10% FBS at a density of 10,000 cells/well in 96-well culture plates and incubated at 37° C. for 24 h. THP-1 cells were plated in RPMI+10% FBS at a density of 10,000 cells/well in 96-well culture plates and incubated at 37° C. for 24 h. Cells were sera-starved for 24 h. […] Untreated cells were used as control. Cells treated with dexamethasone and hydroxychloroquine were included as positive control. After treatment, cells were incubated in a 5% CO2 incubator for 48 h.
# [5] = tested on: Colon cells (HT-29); test: cells; assay type: cell-based; conditions: Spike S1 Protein (1 μg/ml); for inhibition at 0.1 µM / inhibition at 1 µM / inhibition at 10 µM / inhibition at 20 µM: Homo sapiens, HT-29
# [6] = tested on: pancreatic cells (PANC-1); test: cells; assay type: cell-based; conditions: Spike S1 Protein (20 μg/ml)+
# [7] = tested on: Cardiac cells (H9C2); test: cells; assay type: cell-based; conditions: Spike S1 Protein (5 μg/ml); for inhibition at 0.1 µM / inhibition at 1 µM / inhibition at 10 µM / inhibition at 20 µM: Rattus norvegicus, H9c2
# [8] = tested on: Immune (THP-1) cells; test: in vitro; assay type: cell-based, Human; conditions: 48 h
# Protocol: as §1
# [9] = tested on: Endothelial cells (EA.hy926); test: cells; assay type: cell-based; conditions: Spike S1 Protein (1 μg/ml); for inhibition at 0.1 µM / inhibition at 1 µM / inhibition at 10 µM / inhibition at 20 µM: Homo sapiens, EA.hy 926
# [10] = tested on: Kidney cells (HEK-293); test: cells; assay type: cell-based; conditions: Spike S1 Protein (100 ng/ml); for inhibition at 0.1 µM / inhibition at 1 µM / inhibition at 10 µM / inhibition at 20 µM: Homo sapiens, HEK293
# [11] = 0.1 μM, read-out: % Inhibition (IL-6)
# [12] = 0.1 μM, read-out: % Inhibition (IL-8)
# [13] = 1 μM, read-out: % Inhibition (IL-6)
# [14] = 1 μM, read-out: % Inhibition (IL-8)
# [15] = 10 μM, read-out: % Inhibition (IL-6)
# [16] = 10 μM, read-out: % Inhibition (IL-8)
# [17] = 20 μM, read-out: % Inhibition (IL-6)
# [18] = 20 μM, read-out: % Inhibition (IL-8)
# [19] = 0.1 μM, read-out: % Inhibition (wrt Control), IL-6
# [20] = 0.1 μM, read-out: % Inhibition (wrt Control), IL-8
# [21] = 1 μM, read-out: % Inhibition (wrt Control), IL-6
# [22] = 1 μM, read-out: % Inhibition (wrt Control), IL-8
# [23] = 10 μM, read-out: % Inhibition (wrt Control), IL-6
# [24] = 10 μM, read-out: % Inhibition (wrt Control), IL-8
# [25] = 20 μM, read-out: % Inhibition (wrt Control), IL-6
# [26] = 20 μM, read-out: % Inhibition (wrt Control), IL-8
compound,measurement,setting,value
C[C@@H]1C[C@H]2[C@@H]3CCC4=CC(=O)C=C[C@]4(C)[C@@]3(F)[C@@H](O)C[C@]2(C)[C@@]1(O)C(=O)CO [Dexamethasone],Con. of IL-8,[1]; 0.1 μM,2458.5
same,Conc. of IL-6,[1]; 0.1 μM,292.2
same,inhibition at 0.1 µM,[1]; [11],49.4%
same,inhibition at 0.1 µM,[1]; [12],42.5%
same,Con. of IL-8,[1]; 1 μM,2008.8
same,Conc. of IL-6,[1]; 1 μM,348.5
same,inhibition at 1 µM,[1]; [13],39.7%
same,inhibition at 1 µM,[1]; [14],53%
same,Con. of IL-8,[1]; 10 μM,2198.1
same,Conc. of IL-6,[1]; 10 μM,369.4
same,inhibition at 10 µM,[1]; [15],36%
same,inhibition at 10 µM,[1]; [16],48.6%
same,Con. of IL-8,[1]; 20 μM,2386.4
same,Conc. of IL-6,[1]; 20 μM,365.4
same,inhibition at 20 µM,[1]; [17],36.7%
same,inhibition at 20 µM,[1]; [18],44.2%
same,Conc. of IL-8,[2]; 0.1 μM,91.4 pg/mL
same,Conc. of IL-8,[2]; 1 μM,21.5 pg/mL
same,Conc. of IL-8,[2]; 10 μM,64.4 pg/mL
same,Conc. of IL-8,[2]; 20 μM,23.9 pg/mL
same,inhibition at 0.1 µM,"[2]; Homo sapiens, HepG2, 0.1 μM, read-out: % Inhibition (wrt Control ), IL-8",81.7%
same,inhibition at 1 µM,"[2]; Homo sapiens, HepG2, 1 μM, read-out: % Inhibition (wrt Control ), IL-8",95.7%
same,inhibition at 10 µM,"[2]; Homo sapiens, HepG2, 10 μM, read-out: % Inhibition (wrt Control ), IL-8",87.1%
same,inhibition at 20 µM,"[2]; Homo sapiens, HepG2, 20 μM, read-out: % Inhibition (wrt Control ), IL-8",95.2%
same,Con. of IL-8,[3]; 0.1 μM,407.8 pg/mL
same,Conc. of IL-6,[3]; 0.1 μM,49.3 pg/mL
same,Con. of IL-8,[3]; 1 μM,355.6 pg/mL
same,Conc. of IL-6,[3]; 1 μM,50.9 pg/mL
same,Con. of IL-8,[3]; 10 μM,400.6 pg/mL
same,Conc. of IL-6,[3]; 10 μM,46.2 pg/mL
same,Con. of IL-8,[3]; 20 μM,427.8 pg/mL
same,Conc. of IL-6,[3]; 20 μM,52.0 pg/mL
same,inhibition at 0.1 µM,[3]; [19],69.2%
same,inhibition at 0.1 µM,[3]; [20],42.4%
same,inhibition at 1 µM,[3]; [21],68.2%
same,inhibition at 1 µM,[3]; [22],49.8%
same,inhibition at 10 µM,[3]; [23],71.1%
same,inhibition at 10 µM,[3]; [24],43.4%
same,inhibition at 20 µM,[3]; [25],67.5%
same,inhibition at 20 µM,[3]; [26],39.6%
same,% Viability,[4]; 0.1 μM,122.7%
same,% Viability,[4]; 1 μM,76.3%
same,% Viability,[4]; 5 μM,90.0%
same,% Viability,[4]; 10 μM,82.6%
same,% Viability,[4]; 20 μM,69.5%
same,Con. of IL-8,[5]; 0.1 μM,44.1 pg/mL
same,Conc. of IL-6,[5]; 0.1 μM,106.0 pg/mL
same,Con. of IL-8,[5]; 1 μM,18.2 pg/mL
same,Conc. of IL-6,[5]; 1 μM,89.1 pg/mL
same,Con. of IL-8,[5]; 10 μM,53.5 pg/mL
same,Conc. of IL-6,[5]; 10 μM,73.6 pg/mL
same,Con. of IL-8,[5]; 20 μM,66.4 pg/mL
same,Conc. of IL-6,[5]; 20 μM,109.0 pg/mL
same,inhibition at 0.1 µM,[5]; [19],55%
same,inhibition at 0.1 µM,[5]; [20],93.4%
same,inhibition at 1 µM,[5]; [21],62.2%
same,inhibition at 1 µM,[5]; [22],97.3%
same,inhibition at 10 µM,[5]; [23],68.8%
same,inhibition at 10 µM,[5]; [24],92%
same,inhibition at 20 µM,[5]; [25],53.8%
same,inhibition at 20 µM,[5]; [26],90.1%
same,Conc. of IL-8,[6]; 0.1 μM,330.5 pg/mL
same,Conc. of IL-8,[6]; 1 μM,296.2 pg/mL
same,Conc. of IL-8,[6]; 10 μM,342.8 pg/mL
same,Conc. of IL-8,[6]; 20 μM,255.7 pg/mL
same,inhibition at 0.1 µM,"[6]; Homo sapiens, PANC-1, 0.1 μM, read-out: % Inhibition (wrt Control ), IL-8",55.7%
same,inhibition at 1 µM,"[6]; Homo sapiens, PANC-1, 1 μM, read-out: % Inhibition (wrt Control ), IL-8",60.3%
same,inhibition at 10 µM,"[6]; Homo sapiens, PANC-1, 10 μM, read-out: % Inhibition (wrt Control ), IL-8",54.1%
same,inhibition at 20 µM,"[6]; Homo sapiens, PANC-1, 20 μM, read-out: % Inhibition (wrt Control ), IL-8",65.7%
same,Con. of IL-8,[7]; 0.1 μM,31.2
same,Conc. of IL-6,[7]; 0.1 μM,50.8
same,Con. of IL-8,[7]; 1 μM,18.6
same,Conc. of IL-6,[7]; 1 μM,44.5
same,Con. of IL-8,[7]; 10 μM,29.1
same,Conc. of IL-6,[7]; 10 μM,53.3
same,Con. of IL-8,[7]; 20 μM,48.7
same,Conc. of IL-6,[7]; 20 μM,51.8
same,inhibition at 0.1 µM,[7]; [11],90%
same,inhibition at 0.1 µM,[7]; [12],97.8%
same,inhibition at 1 µM,[7]; [13],91.2%
same,inhibition at 1 µM,[7]; [14],98.7%
same,inhibition at 10 µM,[7]; [15],89.5%
same,inhibition at 10 µM,[7]; [16],98%
same,inhibition at 20 µM,[7]; [17],89.7%
same,inhibition at 20 µM,[7]; [18],96.6%
same,% Viability,[8]; 0.1 μM,110.0%
same,% Viability,[8]; 1 μM,98.2%
same,% Viability,[8]; 5 μM,83.1%
same,% Viability,[8]; 10 μM,95.6%
same,% Viability,[8]; 20 μM,104.3%
same,Con. of IL-8,[9]; 0.1 μM,1208.6 pg/mL
same,Con. of IL-8,[9]; 1 μM,1250.3 pg/mL
same,Conc. of IL-6,[9]; 1 μM,42.9 pg/mL
same,Con. of IL-8,[9]; 10 μM,1633.7 pg/mL
same,Conc. of IL-6,[9]; 10 μM,53.9 pg/mL
same,Con. of IL-8,[9]; 20 μM,1766.1 pg/mL
same,Conc. of IL-6,[9]; 20 μM,72.9 pg/mL
same,inhibition at 0.1 µM,"[9]; 0.1 μM, read-out: % Inhibition (wrt, IL-6)",85.7%
same,inhibition at 0.1 µM,"[9]; 0.1 μM, read-out: % Inhibition (wrt, IL-8)",25.2%
same,inhibition at 1 µM,"[9]; 1 μM, read-out: % Inhibition (wrt, IL-6)",87.3%
same,inhibition at 1 µM,"[9]; 1 μM, read-out: % Inhibition (wrt, IL-8)",22.6%
same,inhibition at 10 µM,"[9]; 10 μM, read-out: % Inhibition (wrt, IL-6)",84%
same,inhibition at 10 µM,"[9]; 10 μM, read-out: % Inhibition (wrt, IL-8)",0%
same,inhibition at 20 µM,"[9]; 20 μM, read-out: % Inhibition (wrt, IL-6)",78.4%
same,inhibition at 20 µM,"[9]; 20 μM, read-out: % Inhibition (wrt, IL-8)",0%
same,Con. of IL-8,[10]; 0.1 μM,447.3 pg/mL
same,Conc. of IL-6,[10]; 0.1 μM,64.5 pg/mL
same,Con. of IL-8,[10]; 1 μM,453.6 pg/mL
same,Conc. of IL-6,[10]; 1 μM,65.6 pg/mL
same,Con. of IL-8,[10]; 10 μM,551.8 pg/mL
same,Conc. of IL-6,[10]; 10 μM,79.6 pg/mL
same,Con. of IL-8,[10]; 20 μM,292.7 pg/mL
same,Conc. of IL-6,[10]; 20 μM,42.6 pg/mL
same,inhibition at 0.1 µM,[10]; [19],75.2%
same,inhibition at 0.1 µM,[10]; [20],76.6%
same,inhibition at 1 µM,[10]; [21],74.8%
same,inhibition at 1 µM,[10]; [22],76.3%
same,inhibition at 10 µM,[10]; [23],69.4%
same,inhibition at 10 µM,[10]; [24],71.2%
same,inhibition at 20 µM,[10]; [25],83.6%
same,inhibition at 20 µM,[10]; [26],84.7%
